Among the data in patent US20160362416A1, “ANTIVIRAL COMPOUNDS” (Gilead Sciences, Inc., priority 2012, published 2016) are EC50 and bioavailability values, retold here.

pEC50: −log10 of the molar value.

Data set [1] concerns NS5A chimeric genotype 2a JFH-1 replicon with genotype 2b MD2b-1 strain NS5A gene (M31). Description: HCV genotype 2b NS5A chimeric replicon assay, transient (t). The data set is classed as cell-based. To be noted: Hepatitis C virus, 72 h, read-out: 2b (t) (nM). Here is the method: Evaluation of cell-based anti-HCV activity: Antiviral potency (EC50) was determined using a Renilla luciferase (RLuc)-based HCV replicon reporter assay. To perform the assay for genotype 1 and 2a JFH-1, stable HCV 1a RLuc replicon cells (harboring a dicistronic genotype 1a H77 replicon that encodes a RLuc reporter), stable HCV lb RLuc replicon cells (harboring a dicistronic genotype 1b Conl replicon that encodes a RLuc reporter), or stable HCV 2a JFH-1 Rluc replicon cells (harboring a dicistronic genotype 2a JFH-1 replicon that encodes a RLuc reporter; with L31 present in NS5A) were dispensed into 384-well plates for EC50 assays. To perform the assay for genotype 2a (with M31 present in NS5A) or 2b, NS5A chimeric genotype 2a JFH-1 replicons that encodes a RLuc-Neo reporter and either genotype 2a J6 strain NS5A gene or genotype 2b MD2b-1 strain NS5A gene (both with M31 present) respectively, were either transiently transfected (t) into Huh-Lunet cells or were established as stably replicating replicon cells (s) is provided. Either cells were dispensed into 384-well plates for EC50 assays. To perform the assay for genotype 3 and 4, NS5A chimeric genotype 1b Conl replicons that encodes a Pi-RLuc reporter and either genotype 3a S52 strain NS5A gene or genotype 4a ED43 strain NS5A gene respectively, were transiently transfected (t) into Huh-Lunet cells, which were subsequently dispensed into 384-well plates. Compounds were dissolved in DMSO at a concentration of 10 mM and diluted in DMSO either manually or using an automated pipeting instrument. Serially 3-fold diluted compounds were either manually mixed with cell culture media and added to the seeded cells or directly added to the cells using an automated instrument. DMSO was used as a negative (solvent; no inhibition) control, and the protease inhibitor ITMN-191 was included at a concentration >100×EC50 as a positive control. 72 hours later, cells were lysed and Renilla luciferase activity quantified as recommended by the manufacturer (Promega-Madison, Wis.). Non-linear regression was performed to calculate EC50 values.
A general note: A replicon is a self-replicating genome or part of one, used to study replication in cells.

The test system of data set [2] is NS5A chimeric genotype 2a JFH-1 replicon with genotype 2a J6 strain NS5A gene (M31). Description: HCV genotype 2a J6 NS5A chimeric replicon assay, transient (t). The format is cell-based. As to conditions: Hepatitis C virus, 72 h, read-out: 2a J6 (t) (nM).
Data set [3] deals with NS5A chimeric genotype 1b Con1 replicon with genotype 4a ED43 strain NS5A gene. As to the kind of experiment: HCV genotype 4a NS5A chimeric replicon assay. The format is cell-based. To be noted: Hepatitis C virus, 72 h, read-out: 4a (s) (nM).
Data set [4] has as its system Y93H in genotype 1a NS5A replicon. Description: Resistance mutant replicon assay, genotype 1a NS5A Y93H. The format is cell-based, HCV. To be noted: Hepatitis C virus, read-out: 1a Y93H (nM). The method in brief:
(§1)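 Renilla luciferase activity in lysed cells after 72 h with 3-fold serially diluted compound gave EC50 by non-linear regression. Cells were Huh-7-derived cured-51, transiently transfected with mutant replicon RNA (1a or 1b Pi-RLuc backbone; 3a NS5A in 1b chimera) made by site-directed mutagenesis.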

Data set [5] has as its system stable HCV 2a JFH-1 Rluc replicon cells (L31 present in NS5A). Description: HCV genotype 2a JFH-1 RLuc replicon reporter assay. To be noted: Hepatitis C virus, 72 h, read-out: 2a JFH (nM). The data set is classed as cell-based.
Data set [6] has as its system stable HCV 1a RLuc replicon cells (genotype 1a H77 replicon). As to the kind of experiment: HCV genotype 1a RLuc replicon reporter assay. The data set is classed as cell-based. As to conditions: Hepatitis C virus; stable genotype 1a H77 RLuc replicon cells, 72 hours.
In data set [7] the test system is Y93N in genotype 1a NS5A replicon. Description: Resistance mutant replicon assay, genotype 1a NS5A Y93N. The format is cell-based, HCV. As to conditions: Hepatitis C virus, read-out: 1a Y93N (nM). The method in brief: as §1
In data set [8] the test system is NS5A chimeric genotype 1b Con1 replicon with genotype 3a S52 strain NS5A gene. Description: HCV genotype 3a NS5A chimeric replicon assay. The format is cell-based. To be noted: Hepatitis C virus, 72 h, read-out: 3a (nM). In outline:
(§2)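 EC50 derived by non-linear regression of Renilla luciferase signal measured in lysates 72 h after adding 3-fold serial compound dilutions. Replicons: stable genotype 1b Con1 cells; transient Huh-Lunet transfections of NS5A chimeras—4a ED43 or 3a S52 in Con1, 2b MD2b-1 (M31) in JFH-1.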

For data set [9], the system named is stable HCV 1b RLuc replicon cells (genotype 1b Con1 replicon). As to the kind of experiment: HCV genotype 1b RLuc replicon reporter assay. The format is cell-based. As to conditions: Hepatitis C virus; stable genotype 1b Con1 RLuc replicon cells, 72 hours. In outline:
as §2

Data set [10] deals with Y93H in genotype 3a NS5A replicon. Description: Resistance mutant replicon assay, genotype 3a NS5A Y93H. As to conditions: Hepatitis C virus, read-out: 3a Y93H (nM). The data set is classed as cell-based, HCV. In outline:
as §1

Data set [11] in a line: IV and PO single dose pharmacokinetic studies in SD rats. As to conditions: Sprague-Dawley, rat, plasma, male SD rats, IV infusion 1 mg/kg, oral gavage 2 mg/kg, read-out: Rat % F. The data set is classed as in vivo. The method, then:
IV and PO Single Dose Pharmacokinetic Studies in SD Rats: The pharmacokinetics of selected compounds was characterized in male Sprague-Dawley (SD) rats (250-300 g). In this study, two groups of naïve purebred SD rats (N=3 per group, fasted over night) received the selected compound either as an intravenous (IV) infusion (1 mg/kg over 30 minutes) via the jugular vein or by oral gavage (2 mg/kg). The intravenous (IV) dosing vehicle was 5% ethanol, 35% polyethylene glycol 400 (PEG 400) and 60% water pH 2.0. The oral dosing vehicle was 5% ethanol, 55% PEG 400 and 40% citrate buffer pH 2.2.
Serial blood samples (approximately 0.3 mL each) were collected from jugular vein or other suitable vein at specified time points. For the IV infusion group, the blood samples were collected predose and at 0.25, 0.48, 0.58, 0.75, 1.5, 3, 6, 8, 12 and 24 hours after the start of infusion. For the oral group, the blood samples were collected predose and at 0.25, 0.50, 1, 2, 4, 6, 8, 12 and 24 hours after dosing. The blood samples were collected into Vacutainer™ tubes containing EDTA-K3 as the anti-coagulant and were centrifuged at approximately 4° C. to obtain plasma. The plasma samples were stored at −20° C. until analysis by LC/MS/MS.
A bioanalytical method utilizing high performance liquid chromatography coupled to tandem mass spectrometry (LC/MS/MS) was developed for analysis of the selected compound in rat plasma. Detection was performed using selected reaction monitoring (SRM); Ions representing the precursor (M+H)^+ species was selected in quadrupole 1 (Q1) and collided with argon gas in the collision cell (Q2) to generate specific product ion, which was subsequently monitored by quadrupole 3 (Q3). Standard curve and quality control samples were prepared in male rat plasma and processed in the same way as the test samples to generate quantitative data.
Pharmacokinetic parameters were generated using non-compartmental pharmacokinetic analysis (Phoenix WinNonlin, version 6.3). Values below the lower limit of quantification (LLOQ) were assigned a value of zero if predose and treated as missing thereafter. Area under the curve (AUC) was calculated using the linear trapezoidal rule. The oral bioavailability (% F) was determined by comparison of the area under the curve (AUC) of the compound and/or a metabolite generated in plasma following oral administration to that generated following intravenous administration.

Data set [12] concerns NS5A chimeric genotype 2a JFH-1 replicon with genotype 2b MD2b-1 strain NS5A gene (M31). As to the kind of experiment: HCV genotype 2b NS5A chimeric replicon assay, stable (s). The data set is classed as cell-based. To be noted: Hepatitis C virus, 72 h, read-out: 2b (s) (nM).

By pEC50 is commonly meant −log10 of the EC50, conventionally taken in molar units. Read a high pEC50 as a small EC50. Consider `COC(=O)N[C@H](C(=O)N1[C@@H](C)CC[C@H]1c1ncc(-c2ccc3c(c2)COc2cc4c(ccc5nc([C@@H]6C[C@H](C)CN6C(=O)[C@@H](NC(=O)OC)C6C[C@@H](C)O[C@H](C)C6)[nH]c54)cc2-3)[nH]1)C(C)C` (stereo partly drawn) [Example AV, methyl {(2S)-1-[(2S,5S)-2-(5-{2-[(2S,4S)-1-{(2S)-2-[(2R,6R)-2,6-dimethyltetrahydro-2H-pyran-4-yl]-2-[(methoxycarbonyl)amino]acetyl}-4-methylpyrrolidin-2-yl]-1,11-dihydroisochromeno[4′,3′:6,7]naphtho[1,2-d]imidazol-9-yl}-1H-imidazol-2-yl)-5-methylpyrrolidin-1-yl]-3-methyl-1-oxobutan-2-yl}carbamate], for which the EC50 is 0.015 nM in data set [1]; 0.008 nM in [2]; 0.013 nM in data set [3]; 0.14 nM in [4]; 0.011 nM in [5]; 1.05 nM in data set [7]. Also, the EC50 in data set [8] worked out at 0.029 nM; in data set [10] it was 2.39 nM. In addition, the negative-log EC50 (pEC50) in data set [6] and in [9] was 10.44 in each case.

For the compound `CC[C@H]1C[C@@H](c2ncc(-c3ccc4c(c3)COc3cc5c(ccc6nc([C@@H]7CC[C@H](C)N7C(=O)[C@@H](NC(=O)OC)C(C)C)[nH]c65)cc3-4)[nH]2)N(C(=O)[C@@H](NC(=O)OC)C2C[C@@H](C)O[C@H](C)C2)C1` (stereo partly drawn) [Example AE, Methyl [(1S)-1-[(2R,6R)-2,6-dimethyltetrahydro-2H-pyran-4-yl]-2-{(2S,4S)-4-ethyl-2-[5-(2-{(2S,5S)-1-[N-(methoxycarbonyl)-L-valyl]-5-methylpyrrolidin-2-yl}-1,11-dihydroisochromeno[4′,3′:6,7]naphtho[1,2-d]imidazol-9-yl)-1H-imidazol-2-yl]pyrrolidin-1-yl}-2-oxoethyl]carbamate], the EC50 turned out to be 0.038 nM in data set [1]; 0.042 nM in [2]; 0.011 nM in data set [3]; 0.23 nM in data set [4]; 0.012 nM in data set [5]; 1.12 nM in [7]. The EC50 in data set [8] turned out to be 0.027 nM; in [10], 6.93 nM. In addition, the pEC50 was 10.62 in data set [6] and 10.66 in data set [9].

`COC(=O)N[C@H](C(=O)N1[C@H](c2ncc(-c3ccc4c(c3)COc3cc5c(ccc6nc([C@@H]7CC[C@H](C)N7C(=O)[C@@H](NC(=O)OC)C7C[C@@H](C)O[C@H](C)C7)[nH]c65)cc3-4)[nH]2)C[C@@H]2CCC[C@@H]21)C(C)C` (stereo partly drawn) [Example AY, methyl {(2S)-1-[(2S,3aS,6aS)-2-(5-{2-[(2S,5S)-1-{(2S)-2-[(2R,6R)-2,6-dimethyltetrahydro-2H-pyran-4-yl]-2-[(methoxycarbonyl)amino]acetyl}-5-methylpyrrolidin-2-yl]-1,11-dihydroisochromeno[4′,3′:6,7]naphtho[1,2-d]imidazol-9-yl}-1H-imidazol-2-yl)hexahydrocyclopenta[b]pyrrol-1(2H)-yl]-3-methyl-1-oxobutan-2-yl}carbamate]: the EC50 amounted to 0.03 nM in [1]; 0.013 nM in data set [2]; 0.011 nM in data set [3]; 0.531 nM in [4]; 0.018 nM in data set [5]; 1.18 nM in [7]. Further, the EC50 in [8] was found to be 0.023 nM; in data set [10], 8.48 nM. For the same compound, the negative-log EC50 (pEC50) in [6] was 10.57; in data set [9], 10.55.

With `CC[C@H]1CC[C@@H](c2nc3ccc4cc5c(cc4c3[nH]2)OCc2cc(-c3cnc([C@@H]4CC[C@H](C)N4C(=O)[C@@H](NC(=O)OC)C(C)C)[nH]3)ccc2-5)N1C(=O)[C@@H](NC(=O)OC)[C@H]1CCCOC1` [Example AG, Methyl{(1S)-2-[(2S,5S)-2-ethyl-5-(9-{2-[(2S,5S)-1-{(2S)-2[(methoxycarbonyl)amino]-3-methylbutanoyl}-5-methylpyrrolidin-2-yl]-1H-imidazol-5-yl}-1,11-dihydroisochromeno[4′,3′:6,7]naphtho[1,2-d]imidazol-2-yl)pyrrolidin-1-yl]-2-oxo-1-[(3R)-tetrahydro-2H-pyran-3-yl]ethyl}carbamate], the EC50 in data set [2] came out at 0.121 nM; in data set [3], 0.014 nM; in [5], 0.025 nM; in [8], 0.137 nM; in data set [12], 0.092 nM. Further, the pEC50 in [6] was 10.64; in data set [9], 10.59. The bioavailability in data set [11] was determined as 27.8%.
